Test results from article PMC9782819, “Ramosin: The First Antibacterial Peptide Identified on Bolitoglossa ramosi Colombian Salamander” (Pharmaceutics, 2022).
Where no end group is shown, it is not given here.

Legend:
[1] = system: Staphylococcus aureus ATCC 29,213; test: Broth microdilution endpoint assay / MIC; assay type: cell-based; conditions: 19 h treatment, absorbance 600 nm, p > 0.005
Experimental: (§1) To determine the minimum inhibitory concentrations (MICs) of the candidate peptides, the 96-well plate microdilution assay, described by the Clinical and Laboratory Standards Institute (CLSI) and the European Committee on Antimicrobial Susceptibility Testing (EUCAST), was performed. For testing the antimicrobial activity of the candidate peptides, Gram-positive and Gram-negative bacterial strains were used. […] For this assay, 3 to 5 colonies were taken from the agar and grown to exponential phase in tryptic soy broth (TSB) liquid medium defined as a 0.5 McFarland value measured with a densichek plus (Biomérieux). […] The plates were incubated for 18 h at 37 °C, and subsequently the absorbance was read in a MultiSkan GO (Thermofisher, Waltham, MA, USA) at 600 nm. […] To determine if the effect of the peptides was bactericidal or bacteriostatic, once the absorbance reading was completed, 10 μL were taken from each well where bacterial growth inhibition was observed and they were sown in TSA agars and incubated at 37 °C for 24 h. […]
(§2) All bacterial strains used were ATCC reference strains. The antibacterial activity of Ramosin was evaluated using the Wiegand et al. protocol. […]
(§3) In addition to absorbance measurement, a bacterial growth test was performed. […]

[2] = system: Bacillus cereus ATCC 6464; test: Growth inhibition kinetics (bactericidal or bacteriostatic); assay type: cell-based; conditions: 19 h, peptide 70 μM
Experimental: (§4) To determine the minimum inhibitory concentrations (MICs) of the candidate peptides, the 96-well plate microdilution assay, described by the Clinical and Laboratory Standards Institute (CLSI) and the European Committee on Antimicrobial Susceptibility Testing (EUCAST), was performed. For testing the antimicrobial activity of the candidate peptides, Gram-positive and Gram-negative bacterial strains were used. The strains used were Staphylococcus aureus ATCC 29,213 (S. aureus), Enterococcus faecalis ATCC 29,212 (E. faecalis), Bacillus cereus ATCC 6464 (B. cereus), and Micrococcus luteus ATCC 9341 (M. luteus) as Gram-positive, and Escherichia coli ATCC 25,922 (E. coli), Pseudomonas aeruginosa ATCC 27,853 (P. aeruginosa), and Salmonella typhimurium ATCC 14,028 (S. typhimurium) as Gram-negative. The bacteria were cultivated in tryptic soy agar (TSA) until the time of carrying out the antimicrobial activity assay. For this assay, 3 to 5 colonies were taken from the agar and grown to exponential phase in tryptic soy broth (TSB) liquid medium defined as a 0.5 McFarland value measured with a densichek plus (Biomérieux). Bacteria were diluted to a final concentration of 5 × 10^5 CFU/mL. […] The plates were incubated for 18 h at 37 °C, and subsequently the absorbance was read in a MultiSkan GO (Thermofisher, Waltham, MA, USA) at 600 nm. […] To determine if the effect of the peptides was bactericidal or bacteriostatic, once the absorbance reading was completed, 10 μL were taken from each well where bacterial growth inhibition was observed and they were sown in TSA agars and incubated at 37 °C for 24 h. […]
(§5) All bacterial strains used were ATCC reference strains. The antibacterial activity of Ramosin was evaluated using the Wiegand et al. protocol. […] Two types of tests were carried out: the endpoint, in which the absorbance of the plates was read after 19 h of treatment, and kinetics, in which plate readings were made every hour to determine whether the effect of the peptides was bactericidal or bacteriostatic.
as §3

[3] = system: Escherichia coli ATCC 25,922; test: as above; assay type: cell-based; conditions: 19 h, peptide 70 μM
Experimental: as §4, §5, §3

[4] = system: Pseudomonas aeruginosa ATCC 27,853; test: as above; assay type: cell-based; conditions: 19 h, peptide 70 μM
Experimental: as §4, §5, §3

[5] = system: Staphylococcus aureus ATCC 29,213; test: as above; assay type: cell-based; conditions: 19 h, peptide 70 μM
Experimental: as §1, §2, §3

[6] = system: Escherichia coli ATCC 25,922; assay type: cell-based; conditions: ATCC 25, 18 h
Experimental: as §1, §2, §3

Experimental for human red blood cells: The hemolytic activity of the peptide was determined as previously reported [45]. In brief, its hemolytic activity of the peptide was evaluated by determining the amount of the released hemoglobin from a 4% v/v suspension of fresh human red blood cells (RBCs). In 96-well plates, 65 μL of the RBCs suspension and 65 μL of each peptide dilution were mixed. […] Plates were incubated at 37 °C for two hours, then centrifuged at 2500× g for 5 min. A total of 80 μL of supernatant was recovered and transferred to another 96-well plate, and absorbance at 540 nm was measured in a MultiSkan GO (Thermofisher, Waltham, MA, USA). The percentage of hemolysis was calculated according to the following formula [45]: (1) %Hemolysis=OD450 in the peptide suspension−OD450 negative control in PBS/OD450 of positive control−OD450 negative control in PBS×100

Substance | effect on viability of S. aureus, endpoint assay (peptide control) [1] | effect on B. cereus at 70 μM [2] | effect on E. coli at 70 μM [3] | effect on P. aeruginosa at 70 μM [4] | effect on S. aureus at 70 μM [5] | MIC for E. coli [6] [µM] | non-hemolytic concentration relative to MIC (human red blood cells)
Buforin II | did not have a statistically significant effect | failed to inhibit the growth | bactericidal effect | bactericidal effect | failed to inhibit the growth |  | 
GWFSLVRKVVGGVGSL-NH2 [Ramosin] |  |  |  |  |  | 17.5 | up to four times its MIC
